Data set [1] concerns LTD4. Nature of the data set: LTD4 antagonism in isolated guinea-pig trachea (LTD4-induced contraction). It is filed as cell-based. The settings on record: 5 min, test compound 10^-5 g/ml, LTD4 2×10^-8 g/ml; for inhibition at 10 µg/mL: Cavia porcellus. How it is done: (§1) (ii) LTC4 and LTD4 antagonisms in guinea-pig trachea
(§2) Antagonism for LTC4 and LTD4 were determined in isolated guinea-pig trachea prepared as spiral strip. 10 Tracheal preparations were suspended under 1 g tension in […] and they were incubated for 1 hr prior to use. Contractile responses to LTC4 (2×10^-8 g/ml) and LTD4 (2×10^-8 g/ml) were obtained after the maximal response to histamine (10^-4 M). Test compounds dissolved in 100% dimethyl sulfoxide were added to the organ baths (final concentration of 10^-5 g/ml) 5 min prior to LTC4 and LTD4 addition, and then contractile responses to LTC4 and LTD4 were compared with those of control which was obtained from a paired trachea in the absence of test compounds. LTC4 - and LTD4 -induced contractions were expressed as a percentage of the maximal response to histamine. The antagonism was determined as follows: Antagonism (%)=(1.0-% contraction in test/% contraction in control)×100

In data set [2] the test system is ddY strain male. The data set can be described thus: Acute toxicity test, method-(2), intraperitoneal injection. The settings on record: 7 days. It is filed as in vivo, ddY strain male (4 weeks old). How it is done:
The lethal ratio was determined in ddY strain male (4 weeks old) at 7 days after the intraperitoneal injection of test compounds.

Data set [3] deals with antigen-induced anaphylactic bronchoconstriction. The data set can be described thus: Effect on anaphylactic bronchoconstriction in passively sensitized guinea-pig. It counts as in vivo. The following applies: 2 mg/kg, i.v. How it is done:
(iii) Effect on anaphylactic bronchoconstriction in passively sensitized guinea-pig
Male guinea-pigs (350-450 g) were passively sensitized with intravenous (i.v.) injection of 0.125 ml rabbit anti-EA serum (Cappel Laboratories) 1 day preceding the experiment. […] The right jugular vein was cannulated for the administration of the all agents and trachea was cannulated to record total pulmonary resistance. Guinea-pigs were artificially ventilated by a small animal respirator (Shinano, Model SN-480-7) set at a stroke volume of 4-5 ml and a rate of 50 breaths per min. […] The increase in air overflow volume was expressed as a percentage of the maximum bronchoconstriction obtained by clamping off the trachea. Following surgical preparation, the animals were pretreated with indomethacin (1.0 mg/kg, 10 min), pyrilamine (2 mg/kg, 6 min) and propranolol (0.1 mg/kg, 5 min) prior to the EA challenge (0.1 or 10 mg/kg). All test compounds, 2 mg/kg in 3% Tween 80 or 3% PEG-400, were administered 1 min before the EA challenge. Inhibition (%) of bronchoconstriction was determined as follows Inhibition (%)=(1.0% -maximum bronchoconstriction in test/% maximum bronchoconstriction in control) ×100.
In the Table, the dose of EA was 10 mg/kg, and each compound was dissolved or suspended in 3% Tween 80.
In the Table, the dose of EA was 0.1 mg/kg.
*: PEG represents polyethylene glycol400.

The subject of data set [4] is LTC4. Nature of the data set: LTC4 antagonism in isolated guinea-pig trachea (LTC4-induced contraction). It counts as cell-based. The following applies: 5 min, test compound 10^-5 g/ml, LTC4 2×10^-8 g/ml, guinea-pig trachea; for inhibition at 10 µg/mL: Cavia porcellus, read-out: LTC4 antagonism. How it is done:
as §1, §2

In data set [1], `Cc1ccc(CNc2cnn(C(C)C)c(=O)c2Cl)c(C)c1` [Compound No. 80] showed an inhibition at 10 µg/mL of 99%. For the same molecule, the “Lethal ratio (Death number/Experimental number)” value is given as 0/2 in data set [2] (200 mg/kg) and 0/1 in data set [2] (400 mg/kg).
Take `CC(C)n1ncc(NCc2ccccc2)c(Cl)c1=O` [Compound No. 74, 4-Chloro-5-(benzylamino)-2-i-propyl-3(2H)pyridazinone]: the inhibition at 10 µg/mL in data set [1] worked out at 91%. Moreover, the “Inhibition of anaphylactic bronchoconstriction” value in data set [3] (EA 0.1 mg/kg, Tween 80) is 31%.
In data set [1], `Cc1ccc(CNc2cnn(C(C)C)c(=O)c2Cl)cc1` [compound 77] had an inhibition at 10 µg/mL of 90%. Besides, the “Lethal ratio (Death number/Experimental number)” value in data set [2] (200 mg/kg) and in data set [2] (400 mg/kg) was 0/2 in each case.
Regarding `CCn1ncc(NCc2cccc(OC)c2)c(Cl)c1=O` [Compound No. 6], the values for the inhibition at 10 µg/mL in data set [1] and in data set [4] were 62% and 33%, respectively.
As for `CCOc1ccccc1CNc1cnn(CC)c(=O)c1Cl` [compound 90], the inhibition at 10 µg/mL in data set [1] worked out at 96%. Also, the “Lethal ratio (Death number/Experimental number)” value in data set [2] (200 mg/kg) and in data set [2] (400 mg/kg) was 0/2 each time.
Consider `CCn1ncc(NCc2ccc(OC)cc2OC)c(Cl)c1=O` [compound 99], for which the inhibition at 10 µg/mL in data set [1] was 99%. The “Lethal ratio (Death number/Experimental number)” value in data set [2] (100 mg/kg) is 0/2.
Regarding `CCCOc1cc(OC)ccc1CNc1cnn(CC)c(=O)c1Cl` [compound 112], the inhibition at 10 µg/mL in data set [1] was determined as 86%. Also, the “Inhibition of anaphylactic bronchoconstriction” value in data set [3] (EA 0.1 mg/kg, Tween 80) was determined as 49%.
With `CN(C)CCCNC(=O)c1ccc(CNc2cnn(C(C)(C)C)c(=O)c2Cl)cc1` [compound 59], the inhibition at 10 µg/mL in data set [4] was found to be 17%.
The molecule `COC(=O)/C=C/c1ccc(CNc2cnn(C(C)(C)C)c(=O)c2Cl)cc1` [compound 53] displayed an inhibition at 10 µg/mL in data set [1] of 38%. In addition, the “Inhibition of anaphylactic bronchoconstriction” value in data set [3] (EA 10 mg/kg, 3% Tween 80) was 38%.
With `CCCOc1cccc(CNc2cnn(CC)c(=O)c2Cl)c1` [compound 93], the inhibition at 10 µg/mL is 96% in data set [1] and 93% in data set [4].
In data set [1], `Cc1cccc(CNc2cnn(C(C)C)c(=O)c2Cl)c1` [compound 76] came in with an inhibition at 10 µg/mL of 97%. The “Lethal ratio (Death number/Experimental number)” value was 0/2 in data set [2] (200 mg/kg) and 0/1 in data set [2] (400 mg/kg).
For the molecule `CCN1CCN(Cc2ccc(CNc3cnn(C(C)(C)C)c(=O)c3Cl)cc2)CC1` [compound 49], in data set [4], the LTC4 antagonism is given as 8%.
Take `CN(C)Cc1ccc(CNc2cnn(C(C)(C)C)c(=O)c2Cl)cc1` [compound 48]: the inhibition at 10 µg/mL in data set [4] amounted to 30%.
The molecule `Cc1ccccc1CNc1cnn(C(C)C)c(=O)c1Cl` [compound 78] had an inhibition at 10 µg/mL in data set [1] of 97%. Further, the figures for the “Lethal ratio (Death number/Experimental number)” value in data set [2] (200 mg/kg) and in data set [2] (400 mg/kg) were 0/2 and 0/1, respectively.
With `CCCOc1cccc(CNc2cnn(C(C)C)c(=O)c2Cl)c1` [compound 94], the inhibition at 10 µg/mL was 75% in data set [1] and 83% in data set [4]. Further, in data set [2] (200 mg/kg), the “Lethal ratio (Death number/Experimental number)” value is given as 0/2.
`CCn1ncc(NCc2ccc(OC)c(OC)c2)c(Cl)c1=O` [Compound No. 13] returned an inhibition at 10 µg/mL in data set [1] of 76%. Besides, in data set [3] (EA 10 mg/kg, 3% Tween 80), the “Inhibition of anaphylactic bronchoconstriction” value is on record as 43%.
`CC(C)(C)n1ncc(NCc2ccc(C(=O)N3CCOCC3)cc2)c(Cl)c1=O` [compound 40]: in data set [4], the inhibition at 10 µg/mL is 17%.
Still for that read-out and setting: under `CCN(CC)c1ccc(CNc2cnn(C(C)(C)C)c(=O)c2Cl)cc1` [compound 29] stands 68%.
The molecule `CCOc1cc(OC)ccc1CNc1cnn(C(C)C)c(=O)c1Cl` [compound 109] returned an inhibition at 10 µg/mL in data set [1] of 92%. For the same molecule, in data set [3] (EA 0.1 mg/kg, Tween 80), the “Inhibition of anaphylactic bronchoconstriction” value is on record as 30%.
For `CCc1cc(CNc2cnn(CC)c(=O)c2Cl)ccc1OCc1ccccc1` [compound 83], in data set [1], the inhibition at 10 µg/mL was 74%.
Still for that read-out and setting: for `COc1cc(CNc2cnn(C(C)(C)C)c(=O)c2Cl)cc(OC)c1OC` [compound 120] the value was 26%; for `CC(C)n1ncc(N(C)Cc2cccc(OCCCCCO)c2)c(Cl)c1=O` [Compound No. 150, 4-Chloro-5-[3-(5-hydroxy)pentoxy-N-methyl-benzylamino]-2-i-propyl-3(2H)pyridazinone], 57%.
In data set [1], `CC(C)n1ncc(NCc2ccc(N(C)C)cc2)c(Cl)c1=O` [compound 45] showed an LTD4 antagonism of 14%.
`COc1ccc(CNc2cnn(C(C)(C)C)c(=O)c2Br)cc1OC` [compound 17] returned an inhibition at 10 µg/mL in data set [1] of 80%.
Take `CC(C)n1ncc(NCc2cccc(OCCCCCO)c2)c(Cl)c1=O` [Compound No. 147, 4-Chloro-5-[3-(5-hydroxy)pentoxybenzylamino]-2-i-propyl-3(2H)pyridazinone]: in data set [1], the inhibition at 10 µg/mL stood at 73%.
The molecule `CNC(=O)CCCCOc1cccc(CNc2cnn(C(C)C)c(=O)c2Cl)c1` [Compound No. 146, 4-Chloro-5-[3-(4-N-methylaminocarbonyl)butoxybenzylamino]-2-i-propyl-3(2H)pyridazinone] registered an inhibition at 10 µg/mL in data set [1] of 32%.
`CCOc1cc(CNc2cnn(C(C)C)c(=O)c2Br)ccc1OC` [compound 166]: the inhibition at 10 µg/mL in data set [1] came to 100%.
Turning to `CCOc1cc(CNc2cnn(CC)c(=O)c2Cl)ccc1OC` [compound 102], the inhibition at 10 µg/mL in data set [1] is 86%; in data set [4], 97%. For the same molecule, in data set [2] (100 mg/kg), the “Lethal ratio (Death number/Experimental number)” value is 0/2.
In data set [1], `COc1ccc(CNc2cnn(C(C)C)c(=O)c2Br)c(OC)c1` [compound 169] showed an inhibition at 10 µg/mL of 100%.
Same read-out and setting: for `CCOC(=O)CCNC(=O)/C=C/c1ccc(CNc2cnn(C(C)(C)C)c(=O)c2Cl)cc1` [Compound No. 60] the value was 15%; for `CCOc1cccc(CNc2cnn(C(C)C)c(=O)c2Cl)c1OC` [compound 111], 72%.
Same read-out and setting: under `CC(C)n1ncc(NCc2ccc(Cl)cc2)c(Cl)c1=O` [compound 123] stands 88%.
Same read-out and setting: for `CCOc1cc(CNc2cnn(CC)c(=O)c2Br)ccc1OC` [compound 160] the value was 98%.
In turn, `CN(C)c1ccc(CNc2cnn(C(C)(C)C)c(=O)c2Br)cc1` [compound 47] had an LTD4 antagonism in data set [1] of 65%.
`CN(C)c1ccc(CNc2cnn(C(C)(C)C)c(=O)c2Br)cc1` [compound 28] had an inhibition at 10 µg/mL in data set [1] of 52%.
The same measure, in the same setting: under `CCCOc1cc(CNc2cnn(C(C)C)c(=O)c2Cl)ccc1O` [compound 133] stands 66%; under `COCCOc1cc(CNc2cnn(C(C)C)c(=O)c2Cl)ccc1OC` [compound 148], 62%.
Consider `CCOc1cccc(CNc2cnn(CC)c(=O)c2Cl)c1O` [compound 129], for which, in data set [1], the inhibition at 10 µg/mL was 48%.
`COc1cccc(CNc2cnn(C(C)C)c(=O)c2Br)c1` [compound 163]: in data set [1], the inhibition at 10 µg/mL came to 95%.
Still for that read-out and setting: for `COc1ccc(CNc2cnn(C(C)C)c(=O)c2C)cc1` [Compound No. 151, 4-Methyl-5-(4-methoxybenzylamino)-2-i-propyl-3(2H)-pyridazinone] the value was 78%; for `CCc1cc(CNc2cnn(C(C)C)c(=O)c2Cl)ccc1O` [compound 131], 52%; for `CCCN(CCC)C(=O)c1ccc(CNc2cnn(C(C)(C)C)c(=O)c2Cl)cc1` [compound 39], 67%.
Still for that read-out and setting: under `CCc1cc(CNc2cnn(C(C)C)c(=O)c2Cl)ccc1OC` [compound 84] stands 96%; under `CCn1ncc(NCc2ccc(SC)cc2)c(Cl)c1=O` [compound 124], 71%; under `CCCOc1ccc(CNc2cnn(CC)c(=O)c2Cl)cc1OC` [compound 108], 53%.
For the molecule `CC(C)(C)n1ncc(NCc2ccc(/C=C/C(=O)O)cc2)c(Cl)c1=O` [compound 24], the inhibition at 10 µg/mL in data set [4] is 7%.
Regarding `COc1ccc(CNc2cnn(C(C)C)c(=O)c2Cl)cc1O` [compound 138], the inhibition at 10 µg/mL in data set [1] was 86%.

Values taken from US5098900A, “3(2H)pyridazinone, process for its preparation and anti-allergic agent containing it” (Nissan Chemical Industries Ltd., priority 1984, dated 1992).
